In patent US20250312462A1, “PAK1 DEGRADERS AND METHODS OF USE THEREOF” (INSTITUTE FOR CANCER RESEARCH D/B/A THE RESEARCH INSTITUTE …, priority 2022, published 2025):

How the values were obtained:
Test in all cases: KINOMEscan
Conditions in all cases: read-out: Percent Control
LATS2 = LATS2 (Homo sapiens, UniProt Q9NRM7)
Description: (§1) The kinase engagement assay (KINOMEscan®) was performed by DiscoverX assessing binding abilities toward a set of kinases.

FLT3-autoinhibited = FLT3-autoinhibited (Homo sapiens, UniProt P36888)
Description: as §1

JNK2 = JNK2 (Homo sapiens, UniProt P45984)
Description: as §1

ADCK4 = ADCK4 (Homo sapiens, UniProt Q96D53)
Description: as §1

PIK3CA(H1047L) = PIK3CA(H1047L) (Homo sapiens, UniProt P42336, H1047L)
Description: as §1

NDR1 = NDR1 (Homo sapiens, UniProt Q15208)
Description: as §1

CHEK1 = CHEK1 (Homo sapiens, UniProt O14757)
Description: as §1

PIM3 = PIM3 (Homo sapiens, UniProt Q86V86)
Description: as §1

CDKL5 = CDKL5 (Homo sapiens, UniProt O76039)
Description: as §1

BRAF(V600E) = BRAF(V600E) (Homo sapiens, UniProt P15056, V600E)
Description: as §1

LTK = LTK (Homo sapiens, UniProt P29376)
Description: as §1

EPHB2 = EPHB2 (Homo sapiens, UniProt P29323)
Description: as §1

FGFR2 = FGFR2 (Homo sapiens, UniProt P21802)
Description: as §1

AURKA = AURKA (Homo sapiens, UniProt O14965)
Description: as §1

LIMK1 = LIMK1 (Homo sapiens, UniProt P53667)
Description: as §1

NEK3 = NEK3 (Homo sapiens, UniProt P51956)
Description: as §1

ANKK1 = ANKK1 (Homo sapiens, UniProt Q8NFD2)
Description: as §1

HUNK = HUNK (Homo sapiens, UniProt P57058)
Description: as §1

LOK = LOK (Homo sapiens, UniProt O94804)
Description: as §1

FAK = FAK (Homo sapiens, UniProt Q05397)
Description: as §1

ACVR2B = ACVR2B (Homo sapiens, UniProt Q13705)
Description: as §1

IRAK3 = IRAK3 (Homo sapiens, UniProt Q9Y616)
Description: as §1

IKK-alpha = IKK-alpha (Homo sapiens, UniProt O15111)
Description: as §1

DMPK2 = DMPK2 (Homo sapiens, UniProt Q6DT37)
Description: as §1

[1] = molecular target: ABL1(E255K)-phosphorylated (Homo sapiens, UniProt P00519, E255K)
Description: as §1

[2] = molecular target: RPS6KA5(Kin.Dom.1-N-terminal) (Homo sapiens, UniProt O75582)
Description: as §1

MINK = MINK (Homo sapiens, UniProt Q8N4C8)
Description: as §1

[3] = molecular target: RSK2(Kin.Dom.1-N-terminal) (Homo sapiens, UniProt P51812)
Description: as §1

MYLK4 = MYLK4 (Homo sapiens, UniProt Q86YV6)
Description: as §1

KIT(D816H) = KIT(D816H) (Homo sapiens, UniProt P10721, D816H)
Description: as §1

HIPK3 = HIPK3 (Homo sapiens, UniProt Q9H422)
Description: as §1

PFTAIRE2 = PFTAIRE2 (Homo sapiens, UniProt Q96Q40)
Description: as §1

RIPK4 = RIPK4 (Homo sapiens, UniProt P57078)
Description: as §1

IKK-epsilon = IKK-epsilon (Homo sapiens, UniProt Q14164)
Description: as §1

FLT3(D835Y) = FLT3(D835Y) (Homo sapiens, UniProt P36888, D835Y)
Description: as §1

CAMK4 = CAMK4 (Homo sapiens, UniProt Q16566)
Description: as §1

EPHA6 = EPHA6 (Homo sapiens, UniProt Q9UF33)
Description: as §1

LIMK2 = LIMK2 (Homo sapiens, UniProt P53671)
Description: as §1

MINK, sequence (Q8N4C8 whole entry): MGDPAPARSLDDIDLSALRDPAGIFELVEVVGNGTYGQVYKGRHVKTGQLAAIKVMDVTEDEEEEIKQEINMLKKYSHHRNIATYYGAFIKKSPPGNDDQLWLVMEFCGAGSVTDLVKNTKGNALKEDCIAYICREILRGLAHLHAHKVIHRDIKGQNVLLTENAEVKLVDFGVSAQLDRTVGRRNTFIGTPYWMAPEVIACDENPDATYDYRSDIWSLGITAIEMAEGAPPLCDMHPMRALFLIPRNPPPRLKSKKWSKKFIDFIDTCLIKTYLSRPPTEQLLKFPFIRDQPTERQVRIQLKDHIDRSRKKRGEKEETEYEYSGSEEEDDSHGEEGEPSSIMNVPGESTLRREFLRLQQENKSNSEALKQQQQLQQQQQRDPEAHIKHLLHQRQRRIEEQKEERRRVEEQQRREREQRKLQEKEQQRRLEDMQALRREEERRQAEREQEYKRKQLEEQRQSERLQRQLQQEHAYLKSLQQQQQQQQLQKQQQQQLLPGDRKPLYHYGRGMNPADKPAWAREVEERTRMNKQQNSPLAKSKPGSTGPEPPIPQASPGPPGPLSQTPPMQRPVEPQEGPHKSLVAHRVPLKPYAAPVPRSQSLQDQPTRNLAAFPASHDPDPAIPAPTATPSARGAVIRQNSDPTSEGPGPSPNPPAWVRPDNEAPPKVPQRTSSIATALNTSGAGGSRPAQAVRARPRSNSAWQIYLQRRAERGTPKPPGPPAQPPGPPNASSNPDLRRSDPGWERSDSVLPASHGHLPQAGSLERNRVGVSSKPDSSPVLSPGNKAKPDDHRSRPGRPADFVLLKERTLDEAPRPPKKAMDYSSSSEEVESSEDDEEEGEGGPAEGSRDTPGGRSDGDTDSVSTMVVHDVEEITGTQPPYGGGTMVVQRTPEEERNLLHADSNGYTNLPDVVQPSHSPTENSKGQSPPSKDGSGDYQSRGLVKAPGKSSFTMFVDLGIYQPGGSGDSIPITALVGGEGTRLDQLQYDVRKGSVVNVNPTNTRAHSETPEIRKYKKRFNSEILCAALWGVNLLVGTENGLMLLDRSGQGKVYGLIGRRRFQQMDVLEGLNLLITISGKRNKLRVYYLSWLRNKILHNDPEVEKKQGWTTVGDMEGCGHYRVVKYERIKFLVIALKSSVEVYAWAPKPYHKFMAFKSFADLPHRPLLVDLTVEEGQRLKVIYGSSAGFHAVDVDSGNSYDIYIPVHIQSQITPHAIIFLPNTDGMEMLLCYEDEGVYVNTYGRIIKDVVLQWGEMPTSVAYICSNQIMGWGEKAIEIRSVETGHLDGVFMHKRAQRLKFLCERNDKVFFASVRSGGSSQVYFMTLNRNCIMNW
LATS2, sequence (Q9NRM7 whole entry): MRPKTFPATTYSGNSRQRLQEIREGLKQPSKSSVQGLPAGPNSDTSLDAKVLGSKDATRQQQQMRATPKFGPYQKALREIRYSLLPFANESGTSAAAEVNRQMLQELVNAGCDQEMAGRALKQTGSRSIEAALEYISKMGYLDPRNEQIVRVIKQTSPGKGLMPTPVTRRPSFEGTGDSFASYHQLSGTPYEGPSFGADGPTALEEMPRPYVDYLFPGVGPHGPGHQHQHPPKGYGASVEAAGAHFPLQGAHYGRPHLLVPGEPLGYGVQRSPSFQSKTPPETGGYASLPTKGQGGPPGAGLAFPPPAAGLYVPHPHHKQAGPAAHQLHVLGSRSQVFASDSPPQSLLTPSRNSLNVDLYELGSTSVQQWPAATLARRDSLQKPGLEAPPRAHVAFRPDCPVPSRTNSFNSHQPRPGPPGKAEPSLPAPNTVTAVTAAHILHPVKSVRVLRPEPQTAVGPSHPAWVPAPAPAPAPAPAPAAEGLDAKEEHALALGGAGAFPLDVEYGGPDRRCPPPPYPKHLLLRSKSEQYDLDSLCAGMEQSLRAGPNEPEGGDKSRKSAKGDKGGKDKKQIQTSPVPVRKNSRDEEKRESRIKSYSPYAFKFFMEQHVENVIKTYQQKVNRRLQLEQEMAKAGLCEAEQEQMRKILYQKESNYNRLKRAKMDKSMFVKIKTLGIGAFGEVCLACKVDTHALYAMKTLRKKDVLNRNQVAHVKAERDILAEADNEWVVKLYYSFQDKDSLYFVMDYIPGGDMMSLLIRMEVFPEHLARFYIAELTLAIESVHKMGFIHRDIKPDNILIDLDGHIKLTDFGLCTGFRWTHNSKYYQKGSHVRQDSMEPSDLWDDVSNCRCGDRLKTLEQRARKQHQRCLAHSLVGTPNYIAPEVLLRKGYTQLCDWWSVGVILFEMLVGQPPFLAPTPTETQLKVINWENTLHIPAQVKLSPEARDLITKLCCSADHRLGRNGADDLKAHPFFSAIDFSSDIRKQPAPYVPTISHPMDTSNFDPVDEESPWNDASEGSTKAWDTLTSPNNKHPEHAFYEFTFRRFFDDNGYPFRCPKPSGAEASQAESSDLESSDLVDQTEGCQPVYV
BRAF(V600E), sequence (P15056 whole entry V600E): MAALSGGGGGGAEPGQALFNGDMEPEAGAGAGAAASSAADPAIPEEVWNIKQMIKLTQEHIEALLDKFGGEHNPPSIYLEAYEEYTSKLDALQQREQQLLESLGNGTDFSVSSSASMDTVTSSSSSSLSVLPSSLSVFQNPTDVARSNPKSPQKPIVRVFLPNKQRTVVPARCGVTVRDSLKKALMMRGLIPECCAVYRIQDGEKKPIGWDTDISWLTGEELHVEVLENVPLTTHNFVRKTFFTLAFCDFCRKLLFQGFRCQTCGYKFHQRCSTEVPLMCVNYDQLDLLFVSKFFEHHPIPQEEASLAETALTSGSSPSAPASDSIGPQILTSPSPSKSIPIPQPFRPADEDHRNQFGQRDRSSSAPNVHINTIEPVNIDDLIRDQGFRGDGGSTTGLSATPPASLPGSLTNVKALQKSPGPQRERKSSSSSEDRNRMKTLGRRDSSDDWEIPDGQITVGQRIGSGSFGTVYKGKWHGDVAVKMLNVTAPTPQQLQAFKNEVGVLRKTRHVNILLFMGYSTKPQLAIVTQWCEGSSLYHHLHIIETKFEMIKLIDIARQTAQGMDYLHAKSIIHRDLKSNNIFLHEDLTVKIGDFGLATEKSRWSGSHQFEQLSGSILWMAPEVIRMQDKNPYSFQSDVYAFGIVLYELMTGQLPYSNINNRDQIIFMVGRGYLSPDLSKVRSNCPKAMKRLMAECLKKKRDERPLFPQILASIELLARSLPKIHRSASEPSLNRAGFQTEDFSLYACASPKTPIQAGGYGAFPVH
ADCK4, sequence (Q96D53 whole entry): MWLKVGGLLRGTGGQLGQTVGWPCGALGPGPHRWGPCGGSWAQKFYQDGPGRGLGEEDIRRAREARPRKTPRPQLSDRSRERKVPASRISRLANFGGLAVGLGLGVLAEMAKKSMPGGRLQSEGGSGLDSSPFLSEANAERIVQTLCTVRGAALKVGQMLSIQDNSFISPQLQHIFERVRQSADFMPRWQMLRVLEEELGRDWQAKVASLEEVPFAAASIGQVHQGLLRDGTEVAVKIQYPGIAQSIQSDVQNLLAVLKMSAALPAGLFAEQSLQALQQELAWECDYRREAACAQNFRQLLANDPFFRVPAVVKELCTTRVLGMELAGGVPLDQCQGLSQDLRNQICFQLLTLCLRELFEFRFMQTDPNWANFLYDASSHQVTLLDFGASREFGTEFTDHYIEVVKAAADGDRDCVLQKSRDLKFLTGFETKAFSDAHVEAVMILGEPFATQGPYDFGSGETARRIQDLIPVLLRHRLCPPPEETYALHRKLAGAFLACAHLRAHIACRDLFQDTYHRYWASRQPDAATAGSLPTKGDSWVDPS
PIK3CA(H1047L), sequence (P42336 whole entry H1047L): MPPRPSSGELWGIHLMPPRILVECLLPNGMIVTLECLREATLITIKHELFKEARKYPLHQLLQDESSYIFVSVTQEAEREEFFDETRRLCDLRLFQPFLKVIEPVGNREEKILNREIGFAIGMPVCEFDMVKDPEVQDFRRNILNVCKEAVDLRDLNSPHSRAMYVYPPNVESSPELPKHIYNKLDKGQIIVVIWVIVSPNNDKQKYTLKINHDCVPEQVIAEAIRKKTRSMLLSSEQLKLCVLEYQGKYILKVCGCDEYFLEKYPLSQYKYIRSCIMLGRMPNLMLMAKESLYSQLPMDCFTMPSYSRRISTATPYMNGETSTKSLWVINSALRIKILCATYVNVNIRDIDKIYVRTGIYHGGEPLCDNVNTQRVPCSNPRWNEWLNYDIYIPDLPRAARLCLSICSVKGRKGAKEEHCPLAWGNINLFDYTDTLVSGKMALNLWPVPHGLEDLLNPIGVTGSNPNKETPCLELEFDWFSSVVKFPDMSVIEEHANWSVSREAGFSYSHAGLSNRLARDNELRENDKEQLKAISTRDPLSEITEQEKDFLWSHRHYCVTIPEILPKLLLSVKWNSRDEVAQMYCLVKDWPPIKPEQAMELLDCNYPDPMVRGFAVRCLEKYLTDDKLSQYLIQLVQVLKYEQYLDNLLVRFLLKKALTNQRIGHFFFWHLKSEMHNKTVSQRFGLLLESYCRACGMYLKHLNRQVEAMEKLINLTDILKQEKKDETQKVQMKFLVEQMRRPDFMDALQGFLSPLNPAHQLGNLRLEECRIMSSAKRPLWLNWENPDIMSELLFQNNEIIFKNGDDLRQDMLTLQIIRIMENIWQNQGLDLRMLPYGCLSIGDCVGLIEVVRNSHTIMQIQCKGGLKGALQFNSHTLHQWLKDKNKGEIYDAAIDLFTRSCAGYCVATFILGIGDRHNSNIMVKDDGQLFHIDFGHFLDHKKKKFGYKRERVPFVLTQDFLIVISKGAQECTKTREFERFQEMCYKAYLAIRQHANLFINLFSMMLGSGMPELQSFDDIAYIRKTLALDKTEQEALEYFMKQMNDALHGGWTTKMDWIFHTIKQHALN
RSK2(Kin.Dom.1-N-terminal), sequence (P51812 68-327 limits assumed): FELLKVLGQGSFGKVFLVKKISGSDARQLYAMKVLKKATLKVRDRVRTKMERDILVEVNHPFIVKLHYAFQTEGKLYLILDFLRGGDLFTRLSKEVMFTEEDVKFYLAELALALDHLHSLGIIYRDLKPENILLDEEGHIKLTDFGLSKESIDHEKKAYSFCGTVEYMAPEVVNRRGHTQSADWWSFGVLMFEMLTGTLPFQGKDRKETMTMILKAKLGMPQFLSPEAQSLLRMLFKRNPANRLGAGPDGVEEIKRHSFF

With `O=C1CCC(N2C(=O)c3cccc(NCCCCCCCCNC(=O)N4CC[C@H](NC5=Nc6cc(F)ccc6N(CC(F)F)c6ccc(Cl)cc65)C4)c3C2=O)C(=O)N1` (stereo partly drawn) [BJG-05-039, (3S)-3-((2-Chloro-5-(2,2-difluoroethyl)-8-fluoro-5H-dibenzo[b,e][1,4]diazepin-11-yl)amino)-N-(8-((2-(2,6-dioxopiperidin-3-yl)-1,3-dioxoisoindolin-4-yl)amino)octyl)pyrrolidine-1-carboxamide] the remaining binding at 10 µM (LATS2) was 100%, the remaining binding at 10 µM (FLT3-autoinhibited) was 100% and the remaining binding at 10 µM (JNK2) was 84%. It also gave a remaining binding at 10 µM (ADCK4) of 63%, a remaining binding at 10 µM (PIK3CA(H1047L)) of 63% and a remaining binding at 10 µM (NDR1) of 86%. It also gave a remaining binding at 10 µM (CHEK1) of 57%, a remaining binding at 10 µM (PIM3) of 78% and a remaining binding at 10 µM (CDKL5) of 100%. For the same compound, the remaining binding at 10 µM (BRAF(V600E)) was 100%, the remaining binding at 10 µM (LTK) was 84% and the remaining binding at 10 µM (EPHB2) was 74%. For the same compound, the remaining binding at 10 µM (FGFR2) was 77%, the remaining binding at 10 µM (AURKA) was 100% and the remaining binding at 10 µM (LIMK1) was 94%. For the same compound, the remaining binding at 10 µM (NEK3) was 100%, the remaining binding at 10 µM (ANKK1) was 87% and the remaining binding at 10 µM (HUNK) was 100%. It also gave a remaining binding at 10 µM (LOK) of 98%, a remaining binding at 10 µM (FAK) of 65% and a remaining binding at 10 µM (ACVR2B) of 46%. The remaining binding at 10 µM (IRAK3) was 55%, the remaining binding at 10 µM (IKK-alpha) was 91% and the remaining binding at 10 µM (DMPK2) was 72%. The remaining binding at 10 µM [1] was 100%, the remaining binding at 10 µM [2] was 94% and the remaining binding at 10 µM (MINK) was 100%. For the same compound, the remaining binding at 10 µM [3] was 82%, the remaining binding at 10 µM (MYLK4) was 100% and the remaining binding at 10 µM (KIT(D816H)) was 100%. The remaining binding at 10 µM (HIPK3) was 100%, the remaining binding at 10 µM (PFTAIRE2) was 78% and the remaining binding at 10 µM (RIPK4) was 98%. It also gave a remaining binding at 10 µM (IKK-epsilon) of 100%, a remaining binding at 10 µM (FLT3(D835Y)) of 63% and a remaining binding at 10 µM (CAMK4) of 74%. It also gave a remaining binding at 10 µM (EPHA6) of 94% and a remaining binding at 10 µM (LIMK2) of 72%.
